{
  "source": "paper PMC5150537",
  "about": "(Nature Communications, 2016)",
  "target": "T1, TmPPase (Thermotoga maritima, UniProt Q9S5X0)",
  "T1 construct": "gene hppA; N-terminally His6-tagged, plasmid pRS1024, expressed in Saccharomyces cerevisiae BJ1991, OGNPG-solubilised, homodimer",
  "T1 sequence (Q9S5X0 1-726 limits assumed)": "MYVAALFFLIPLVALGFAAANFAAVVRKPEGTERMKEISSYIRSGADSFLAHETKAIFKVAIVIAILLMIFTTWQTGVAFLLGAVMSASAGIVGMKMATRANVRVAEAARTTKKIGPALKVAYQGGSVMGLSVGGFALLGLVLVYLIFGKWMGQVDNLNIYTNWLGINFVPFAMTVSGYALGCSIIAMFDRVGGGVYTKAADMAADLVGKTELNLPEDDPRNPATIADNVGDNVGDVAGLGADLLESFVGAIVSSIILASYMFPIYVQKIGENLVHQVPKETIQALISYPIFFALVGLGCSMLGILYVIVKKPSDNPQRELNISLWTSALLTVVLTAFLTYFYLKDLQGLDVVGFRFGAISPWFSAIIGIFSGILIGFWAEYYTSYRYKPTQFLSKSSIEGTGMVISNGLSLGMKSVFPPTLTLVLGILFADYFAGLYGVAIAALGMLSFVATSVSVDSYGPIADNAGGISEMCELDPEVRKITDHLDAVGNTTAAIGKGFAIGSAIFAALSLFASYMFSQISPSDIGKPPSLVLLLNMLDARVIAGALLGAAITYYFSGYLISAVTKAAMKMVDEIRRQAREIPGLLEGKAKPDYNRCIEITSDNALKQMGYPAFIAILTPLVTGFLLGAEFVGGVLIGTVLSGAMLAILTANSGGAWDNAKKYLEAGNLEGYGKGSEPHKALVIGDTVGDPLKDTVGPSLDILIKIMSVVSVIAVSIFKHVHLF",
  "experiment": "X-ray crystallography, […] Å",
  "assay_type": "binding",
  "details": "active site, as Mg5IDP complex; Na+ bound at ion gate; pH 8.5 well solution; non-hydrolysable substrate analogue",
  "data": [
    {"smiles": "O=P(O)(O)NP(=O)(O)O", "note": "[IDP, imidodiphosphate]", "values": [
      {"measurement": "X-ray crystallography, 3.5 Å", "result": "In TmPPase:IDP, an Mg5IDP-complex was fit into the positive Fo–Fc density in the hydrolytic centre"}
    ]}
  ]
}
